Series [1] has as its system mice in oxygen deficiency at normal pressure. The series can be described thus: Resistance to oxygen-deficiency: model of oxygen deficiency at normal pressure. In kind it is in vivo, mice of Kunming species. The protocol:
Experimental research of the resistance to oxygen-deficiency of N-acetyl-Dglucosanime 1. Model of Oxygen Deficiency at Normal Pressure:
The mice were put into a sealed glass desiccator with a volumn of 200 ml and charged with 20 g of sodium lime to observe the survival time.
The mice of Kunming species, provided by the 3rd Military Medical University of P. R. China
Two groups had 24 mice in total, in the experimental group, two weeks before experiment, administrating N-acetyl-D-glucosanime by stomach infusion with a dosage of 0.05 g/kg, in the control group, they were normally fed.

Series [2] concerns rat with cerebral ischemia and Re-Infusion. Briefly: Protecting effect in rat with cerebral ischemia and re-infusion (four arteries ligation model). In kind it is in vivo, Wistar rat. The source says: The following experimental example is used to illustrate the effect of resisting cardiac and cerebral ischemia as well as oxygen-deficiency, and the low toxicity of the compound of the present invention (the compound of formula (I)). • I. The protecting effect of N-acetyl-D-glucosamine in rat with cerebral ischemia and Re-Infusion • 1. Animal: Wistar rat provided by the 3rd Military Medical University P.R. China. Half of them are male, the other are female. • 2. Method for making model: the model is made by four arteries ligation method to cause the rat to be cerebral ischemia, in which for each rat, the vertebra artery in the vertebra foramen of the second cervical vertebra is blocked by hot coagulation with electric coagulator, then separate the two common carotid artery in the front of it, after that, remain the surgical thread jacket, sewing up. Next day, after the animal is recovered from anesthesia, open the sewing thread in the front of the animal, clamp the two common carotid artery with artery clip, it needs 20 min. in total. […] Grouping: the animals are divided into four groups (eight animals in each group) […]
Astragalus Group: that is, before the animal is treated, administrating Astragalus injection solution by abdominal injection.
Astragalus+N-acetyl-D-glucosanime Group: that is, 30 min before clamping, administrating a mixture injection solution of 0.25 g/kg of N-acetyl-D-glucosanime and 2 g/kg of Astragalus by abdominal injection.
The control Group: not administrating any medicament, but injecting physiological salt solution with the same volume.
The animals in each group are all fed in standard. In the process of operation, please pay attention to asepsis.
Abnormal ratio of the water content in the brain (by dry-wet weight method):
Scoring the symptoms of nerve behavior • 0 score: no symptom of nerve defect, moving normally • 1 score: cannot extend the front claw at the opposite side • 2 score: when walking, the body rotates toward the hemiplegia side • 3 score: the body collapse down toward the hemiplegia side • 4 score: not capable of walking spontaneously, losing consciousness 5.

For series [3] the following is noted: in vivo. The source says: N-acetyl-D-glucosanime can raise the resistance to oxygen deficiency of the small mice. • III. Toxicological test of the compound of formula (I), including: • 1. acute toxicity test: including tests of administrating medicine by oral, intravenous injection and maximum limit amount for administration; • 2. Ames test; • 3. micronucleus test of bone marrow cell of mouse; • 4. abnormal sexual test for the sperm of mouse; • 5. abnormal aberrance test for the chromosin of mouse's testis; • 6. chronic lethal test; • 7. subchronic toxicity (feed for 90 days) test; • 8. traditional aberrance-inducing test;

As to `CC(=O)N[C@H]1C(O)O[C@H](CO)[C@@H](O)[C@@H]1O` (stereo partly drawn) [N-acetyl-D-glucosanime, N-acetyl-D-glucosamine], in series [1] (0.05 g/kg by stomach infusion, two weeks before experiment, sealed 200 ml desiccator with 20 g sodium lime, versus control group), the Average survival period result is given as “much longer than that of the control group”. Further, the “resistance to oxygen deficiency of the small mice” value in series [1] (conclusion) was “can raise”. In addition, in series [2] (conclusion, dosage 0.025 g/kg), the “cerebral edema degree caused by cerebral ischemia and re-infusion” value is reported as “decreased obviously”; the corresponding nerve symptoms result is on record as “released”; the survival rate entry is “raised obviously”. In addition, in series [2] (dry-wet weight method, medicament before clamping (N-acetyl-D-glucosanime 0.25 g/kg, Astragalus 2 g/kg in mixture), control 70.84%), the “Water content of brain” value was 66.2%. For the same molecule, the Survival in series [2] (four arteries ligation, 20 min clamping, medicament before clamping (N-acetyl-D-glucosanime 0.25 g/kg, Astragalus 2 g/kg in mixture), control 62.5%) amounted to 87.5%. Also, in series [2] (medicament before clamping (N-acetyl-D-glucosanime 0.25 g/kg, Astragalus 2 g/kg in mixture), control 75%), the “Abnormal ratio (symptoms of nerve behavior)” value is 50%. Besides, in series [3], the “acute test dosage relative to the injection dosage for human being” value is 300 times and the “dosage taken at which acute toxicosis reaction had not appeared” value is “more than 2 g/kg”. For the same molecule, the “maximum dosage with no toxicosis reaction” value in series [3] (4 weeks) turned out to be 1 g/kg.
